Measurements reported in article PMC4729137, “Functional analysis of androgen receptor mutations that confer anti-androgen resistance identified in circulating cell-free DNA from prostate cancer patients” (Genome Biology, 2016).
Positions count from the first letter of the chain named.

Experiments:
[1] = target: T1, H875Y/T878A-AR (Homo sapiens, UniProt P10275, H875Y/T878A); type: cell-based; settings: AR mutant H875Y/T878A; transfected PC3 cells; 0.1 nM R1881; drug 0 to 50 μM
T1 sequence (P10275 1-920 H875Y/T878A): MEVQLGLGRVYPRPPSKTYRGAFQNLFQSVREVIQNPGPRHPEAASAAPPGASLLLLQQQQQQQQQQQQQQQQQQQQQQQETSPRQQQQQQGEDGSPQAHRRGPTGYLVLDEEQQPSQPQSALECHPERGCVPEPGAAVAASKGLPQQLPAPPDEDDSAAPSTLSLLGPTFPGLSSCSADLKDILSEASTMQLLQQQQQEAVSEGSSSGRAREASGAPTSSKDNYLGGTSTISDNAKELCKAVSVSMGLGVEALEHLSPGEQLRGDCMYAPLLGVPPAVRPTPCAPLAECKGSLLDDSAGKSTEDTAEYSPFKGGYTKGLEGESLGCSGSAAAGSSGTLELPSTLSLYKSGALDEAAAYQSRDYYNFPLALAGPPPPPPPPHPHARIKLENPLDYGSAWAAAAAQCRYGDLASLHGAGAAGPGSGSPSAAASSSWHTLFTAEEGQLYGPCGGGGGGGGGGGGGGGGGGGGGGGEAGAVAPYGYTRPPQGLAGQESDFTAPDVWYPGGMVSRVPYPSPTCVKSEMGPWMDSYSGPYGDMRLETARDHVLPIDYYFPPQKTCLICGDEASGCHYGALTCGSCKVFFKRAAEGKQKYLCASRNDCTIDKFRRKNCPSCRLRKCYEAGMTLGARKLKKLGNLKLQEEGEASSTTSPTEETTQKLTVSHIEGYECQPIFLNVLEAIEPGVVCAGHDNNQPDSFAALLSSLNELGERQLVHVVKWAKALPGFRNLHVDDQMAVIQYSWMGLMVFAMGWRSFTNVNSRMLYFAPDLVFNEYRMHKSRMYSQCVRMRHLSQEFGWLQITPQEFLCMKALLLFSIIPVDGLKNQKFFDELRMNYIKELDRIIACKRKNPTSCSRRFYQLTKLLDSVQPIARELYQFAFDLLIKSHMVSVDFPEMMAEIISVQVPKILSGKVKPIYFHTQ
Source text: (§1) Full-length human AR (WT-AR) was encoded on a pcDNA3.1 expression plasmid (Life technologies). The LBD point mutations (single and multiple) were generated using the QuikChange II Site-Directed Mutagenesis Kit (Agilent Technologies) as per manufacturer’s instructions using WT-AR as the template. The mutagenic oligonucleotide primers were designed individually with the desired mutation in the middle of the primer with approximately 10 to 15 bases of correct sequence on both sides.
(§2) PC3 cells were seeded and transfected as described above. […] A non-stimulated/no R1881 control was used. After 24 h, cells were lysed and AR-dependent luciferase activity was quantified. Each concentration was assayed in quadruplicate n = 4, with a biological replicate of n = 3. Results were averaged and normalized by expressing them as a percentage of WT AR activity.

[2] = target: T2, H875Q-AR (Homo sapiens, UniProt P10275, H875Q); type: cell-based; settings: AR mutant H875Q; transfected PC3 cells; 0.1 nM R1881; drug 0 to 50 μM
T2 sequence (P10275 1-920 H875Q): T1 sequence (P10275 1-920 H875Y/T878A) with Y875Q, A878T
Source text: as §1, §2

Agonist response to treatment [1]: Yes
Agonist response to treatment [2]: Partial
Structure (SMILES): CC(C)(O)C(=O)Nc1ccc([N+](=O)[O-])c(C(F)(F)F)c1 [Hydroxyflutamide, hydroxyflutamide]
